From the kinase profiling compilation of Christmann-Franck et al. (2016)

Tests used:
Test in all cases: radiometric filter-binding kinase assay, Kinase HotSpot
Settings in all cases: compound 0.5 µM; ATP 10 µM
ACVR1 (human) = ACVR1 (human) (UniProt Q04771)
MERTK (human) = MERTK (human) (UniProt Q12866)
MAP3K5 (human) = MAP3K5 (human) (UniProt Q99683)
NUAK1 (human) = NUAK1 (human) (UniProt O60285)
TEK (human) = TEK (human) (UniProt Q02763)
FER (human) = FER (human) (UniProt P16591)
CDC42BPB (human) = CDC42BPB (human) (UniProt Q9Y5S2)
MAPK14 (human) = MAPK14 (human) (UniProt Q16539)
DAPK1 (human) = DAPK1 (human) (UniProt P53355)
PRKD3 (human) = PRKD3 (human) (UniProt O94806)
CDK5 CDK5R1 p35 (human) = CDK5 CDK5R1 p35 (human) (UniProt Q00535+Q15078)
LCK (human) = LCK (human) (UniProt P06239)
PIM1 (human) = PIM1 (human) (UniProt P11309)
PIM1 (human), sequence (P11309 whole entry, looked up): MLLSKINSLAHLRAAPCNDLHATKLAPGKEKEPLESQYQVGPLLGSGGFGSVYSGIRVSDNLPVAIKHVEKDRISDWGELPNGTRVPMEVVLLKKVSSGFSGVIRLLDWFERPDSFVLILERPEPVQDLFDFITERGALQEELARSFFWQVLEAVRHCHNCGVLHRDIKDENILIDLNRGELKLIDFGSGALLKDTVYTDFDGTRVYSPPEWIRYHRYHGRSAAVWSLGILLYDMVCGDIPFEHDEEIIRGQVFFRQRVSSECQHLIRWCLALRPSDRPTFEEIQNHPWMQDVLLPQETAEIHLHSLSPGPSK

PASK (human) = PASK (human) (UniProt Q96RG2)
KIT (human) = KIT (human) (UniProt P10721)
RPS6KB2 (human) = RPS6KB2 (human) (UniProt Q9UBS0)
RPS6KA2 KD1 KD2 (human) = RPS6KA2 KD1 KD2 (human) (UniProt Q15349)
NEK4 (human) = NEK4 (human) (UniProt P51957)
PRKCB2 (human) = PRKCB2 (human) (UniProt P05771)
DDR2 (human) = DDR2 (human) (UniProt Q16832)
DDR2 (human), sequence (Q16832 whole entry, looked up): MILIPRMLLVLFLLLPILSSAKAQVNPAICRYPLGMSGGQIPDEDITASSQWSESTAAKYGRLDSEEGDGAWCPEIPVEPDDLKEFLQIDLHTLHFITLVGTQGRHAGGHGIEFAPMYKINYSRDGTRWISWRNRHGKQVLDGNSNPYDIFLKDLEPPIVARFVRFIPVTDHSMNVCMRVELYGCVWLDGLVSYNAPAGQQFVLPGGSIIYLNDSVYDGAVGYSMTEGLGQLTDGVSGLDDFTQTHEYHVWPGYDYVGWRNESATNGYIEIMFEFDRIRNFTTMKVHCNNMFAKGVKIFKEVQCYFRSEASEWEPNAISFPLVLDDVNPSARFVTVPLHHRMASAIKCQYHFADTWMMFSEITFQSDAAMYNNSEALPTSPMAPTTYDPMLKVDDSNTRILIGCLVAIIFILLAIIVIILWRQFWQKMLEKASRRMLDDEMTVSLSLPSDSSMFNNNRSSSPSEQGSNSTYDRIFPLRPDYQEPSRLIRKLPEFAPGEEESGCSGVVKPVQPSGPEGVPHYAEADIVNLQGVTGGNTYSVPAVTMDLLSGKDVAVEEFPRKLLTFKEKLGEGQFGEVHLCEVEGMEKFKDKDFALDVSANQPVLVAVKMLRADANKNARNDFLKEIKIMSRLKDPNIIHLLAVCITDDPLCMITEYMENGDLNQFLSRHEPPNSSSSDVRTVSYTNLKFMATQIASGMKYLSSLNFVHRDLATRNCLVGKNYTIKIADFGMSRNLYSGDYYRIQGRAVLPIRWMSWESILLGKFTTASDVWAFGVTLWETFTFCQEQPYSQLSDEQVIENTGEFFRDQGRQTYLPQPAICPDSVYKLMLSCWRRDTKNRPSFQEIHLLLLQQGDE

EGFR (human) = EGFR (human) (UniProt P00533)
AURKB (human) = AURKB (human) (UniProt Q96GD4)
MAP3K3 (human) = MAP3K3 (human) (UniProt Q99759)
ERBB4 (human) = ERBB4 (human) (UniProt Q15303)
PAK6 (human) = PAK6 (human) (UniProt Q9NQU5)
CHUK (human) = CHUK (human) (UniProt O15111)
CLK2 (human) = CLK2 (human) (UniProt P49760)
CLK2 (human), sequence (P49760 whole entry, looked up): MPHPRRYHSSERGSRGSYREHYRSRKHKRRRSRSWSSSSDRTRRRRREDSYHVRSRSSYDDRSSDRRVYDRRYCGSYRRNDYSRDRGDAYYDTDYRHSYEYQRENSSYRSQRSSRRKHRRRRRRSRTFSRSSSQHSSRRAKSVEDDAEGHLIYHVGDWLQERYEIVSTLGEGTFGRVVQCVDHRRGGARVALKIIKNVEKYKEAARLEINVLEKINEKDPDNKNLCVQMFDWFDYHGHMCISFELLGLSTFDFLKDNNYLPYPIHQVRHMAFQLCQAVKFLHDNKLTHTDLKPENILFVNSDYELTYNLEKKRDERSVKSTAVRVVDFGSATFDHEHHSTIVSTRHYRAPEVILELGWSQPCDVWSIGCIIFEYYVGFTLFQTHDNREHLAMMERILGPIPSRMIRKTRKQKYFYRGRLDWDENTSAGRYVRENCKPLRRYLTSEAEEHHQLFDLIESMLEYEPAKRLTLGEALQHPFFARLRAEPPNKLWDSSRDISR

CSNK1G1 (human) = CSNK1G1 (human) (UniProt Q9HCP0)
FGFR3 (human) = FGFR3 (human) (UniProt P22607)
PTK6 (human) = PTK6 (human) (UniProt Q13882)
PTK6 (human), sequence (Q13882 whole entry, looked up): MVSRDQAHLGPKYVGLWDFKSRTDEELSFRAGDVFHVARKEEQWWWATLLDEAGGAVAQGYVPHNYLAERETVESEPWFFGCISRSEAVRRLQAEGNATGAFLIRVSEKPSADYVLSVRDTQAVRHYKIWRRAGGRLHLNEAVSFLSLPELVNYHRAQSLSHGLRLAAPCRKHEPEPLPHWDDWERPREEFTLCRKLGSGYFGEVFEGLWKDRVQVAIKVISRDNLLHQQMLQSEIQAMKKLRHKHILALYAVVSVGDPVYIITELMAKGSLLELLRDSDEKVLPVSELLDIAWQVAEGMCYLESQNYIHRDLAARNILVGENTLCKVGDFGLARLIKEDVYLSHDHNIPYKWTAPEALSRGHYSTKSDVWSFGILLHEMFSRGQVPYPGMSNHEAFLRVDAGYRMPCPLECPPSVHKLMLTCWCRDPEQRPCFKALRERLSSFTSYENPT

FGFR2 (human) = FGFR2 (human) (UniProt P21802)
FGFR2 (human), sequence (P21802 whole entry, looked up): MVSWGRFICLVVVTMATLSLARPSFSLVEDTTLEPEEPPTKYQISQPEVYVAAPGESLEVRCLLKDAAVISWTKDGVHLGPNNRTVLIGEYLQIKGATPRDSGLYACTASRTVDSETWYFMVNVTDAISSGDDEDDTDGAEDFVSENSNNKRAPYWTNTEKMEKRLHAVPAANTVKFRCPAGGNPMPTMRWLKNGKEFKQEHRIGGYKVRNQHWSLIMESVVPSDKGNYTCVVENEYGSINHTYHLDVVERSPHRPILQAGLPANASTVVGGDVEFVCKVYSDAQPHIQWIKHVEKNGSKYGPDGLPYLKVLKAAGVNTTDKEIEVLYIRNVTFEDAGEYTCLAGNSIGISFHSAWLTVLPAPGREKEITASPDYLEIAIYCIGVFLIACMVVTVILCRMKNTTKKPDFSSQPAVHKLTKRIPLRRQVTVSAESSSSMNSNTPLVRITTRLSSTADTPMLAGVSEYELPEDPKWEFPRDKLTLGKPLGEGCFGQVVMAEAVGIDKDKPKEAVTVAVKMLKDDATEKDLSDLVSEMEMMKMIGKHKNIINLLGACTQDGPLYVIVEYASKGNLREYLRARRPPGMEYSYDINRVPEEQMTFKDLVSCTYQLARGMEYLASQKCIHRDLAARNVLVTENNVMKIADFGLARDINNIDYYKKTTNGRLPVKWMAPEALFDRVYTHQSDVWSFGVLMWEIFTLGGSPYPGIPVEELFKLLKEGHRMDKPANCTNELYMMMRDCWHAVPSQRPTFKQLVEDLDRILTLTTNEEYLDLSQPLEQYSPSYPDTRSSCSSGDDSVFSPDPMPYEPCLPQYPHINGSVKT

GSK3B (human) = GSK3B (human) (UniProt P49841)
SRPK1 (human) = SRPK1 (human) (UniProt Q96SB4)
PRKCD (human) = PRKCD (human) (UniProt Q05655)
BRAF (human) = BRAF (human) (UniProt P15056)

FER (human), sequence (P16591 whole entry, looked up): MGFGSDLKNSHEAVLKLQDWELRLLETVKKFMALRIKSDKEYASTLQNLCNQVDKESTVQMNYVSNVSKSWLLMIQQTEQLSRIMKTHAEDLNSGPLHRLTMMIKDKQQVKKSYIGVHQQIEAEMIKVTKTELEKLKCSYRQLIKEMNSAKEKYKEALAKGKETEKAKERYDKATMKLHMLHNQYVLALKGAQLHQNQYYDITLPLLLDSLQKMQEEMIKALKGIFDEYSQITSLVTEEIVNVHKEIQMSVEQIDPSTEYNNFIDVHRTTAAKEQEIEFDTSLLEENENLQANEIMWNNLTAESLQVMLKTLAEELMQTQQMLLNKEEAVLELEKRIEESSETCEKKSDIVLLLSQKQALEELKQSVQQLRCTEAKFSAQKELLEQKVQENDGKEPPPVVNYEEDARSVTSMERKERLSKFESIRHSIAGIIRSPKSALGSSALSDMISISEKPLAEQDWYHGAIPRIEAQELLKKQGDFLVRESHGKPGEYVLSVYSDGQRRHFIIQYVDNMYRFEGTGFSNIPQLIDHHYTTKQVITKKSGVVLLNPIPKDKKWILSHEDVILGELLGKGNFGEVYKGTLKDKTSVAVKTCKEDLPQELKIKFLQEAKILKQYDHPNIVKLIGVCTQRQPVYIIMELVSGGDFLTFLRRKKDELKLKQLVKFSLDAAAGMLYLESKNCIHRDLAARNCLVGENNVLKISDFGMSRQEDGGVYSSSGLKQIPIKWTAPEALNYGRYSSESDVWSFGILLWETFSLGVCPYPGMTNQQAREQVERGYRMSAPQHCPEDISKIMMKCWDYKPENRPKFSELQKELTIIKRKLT
TEK (human), sequence (Q02763 whole entry, looked up): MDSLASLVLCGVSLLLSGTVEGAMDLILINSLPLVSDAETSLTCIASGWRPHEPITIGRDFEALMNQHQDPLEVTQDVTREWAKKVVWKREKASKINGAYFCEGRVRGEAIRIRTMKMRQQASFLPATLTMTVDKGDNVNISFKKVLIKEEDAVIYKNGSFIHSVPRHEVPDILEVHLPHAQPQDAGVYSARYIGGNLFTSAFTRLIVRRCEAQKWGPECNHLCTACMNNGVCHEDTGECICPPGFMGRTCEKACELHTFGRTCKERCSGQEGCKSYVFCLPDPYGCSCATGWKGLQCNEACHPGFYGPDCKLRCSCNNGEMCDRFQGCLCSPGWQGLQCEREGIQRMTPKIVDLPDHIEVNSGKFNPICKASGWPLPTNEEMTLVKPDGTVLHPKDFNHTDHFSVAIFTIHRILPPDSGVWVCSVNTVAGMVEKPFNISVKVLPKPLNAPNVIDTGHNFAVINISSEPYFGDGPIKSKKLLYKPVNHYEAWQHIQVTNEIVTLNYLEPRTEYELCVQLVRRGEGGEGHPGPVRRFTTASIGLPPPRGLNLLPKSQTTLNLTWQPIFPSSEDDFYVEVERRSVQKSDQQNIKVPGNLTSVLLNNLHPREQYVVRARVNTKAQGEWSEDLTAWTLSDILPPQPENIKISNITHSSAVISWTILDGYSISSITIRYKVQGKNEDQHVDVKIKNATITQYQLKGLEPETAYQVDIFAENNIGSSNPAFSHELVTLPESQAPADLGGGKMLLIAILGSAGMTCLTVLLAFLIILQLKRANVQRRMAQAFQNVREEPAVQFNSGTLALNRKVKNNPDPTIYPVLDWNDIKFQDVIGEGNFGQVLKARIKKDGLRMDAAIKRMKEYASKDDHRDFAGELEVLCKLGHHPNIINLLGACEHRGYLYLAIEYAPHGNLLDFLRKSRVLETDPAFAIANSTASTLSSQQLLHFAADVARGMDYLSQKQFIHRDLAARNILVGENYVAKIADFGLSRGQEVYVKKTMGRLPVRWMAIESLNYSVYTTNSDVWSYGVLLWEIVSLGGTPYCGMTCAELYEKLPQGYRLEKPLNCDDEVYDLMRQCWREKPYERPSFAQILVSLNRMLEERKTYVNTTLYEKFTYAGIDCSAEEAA

Row | SMILES | residual activity (ACVR1 (human)) | residual activity (MERTK (human)) | residual activity (MAP3K5 (human)) | residual activity (NUAK1 (human)) | residual activity (TEK (human)) | residual activity (FER (human)) | residual activity (CDC42BPB (human)) | residual activity (MAPK14 (human)) | residual activity (DAPK1 (human)) | residual activity (PRKD3 (human)) | residual activity (LCK (human)) | residual activity (PIM1 (human)) | residual activity (PASK (human)) | residual activity (KIT (human)) | residual activity (RPS6KB2 (human)) | residual activity (RPS6KA2 KD1 KD2 (human)) | residual activity (NEK4 (human)) | residual activity (PRKCB2 (human)) | residual activity (DDR2 (human)) | residual activity (AURKB (human)) | further results
1 | c1ccc(-c2cnc(Nc3ccc(OCCN4CCCC4)cc3)s2)cc1 | 164% | 87.8% | 91.1% | 56.4% | 102% | 90% | 96.7% | 103% | 95.1% | 74% | 48.6% | 100% | 96.4% | 20.3% | 92.7% | 85% | 96.1% | 104% | 86.6% | 75.8% | residual activity (CDK5 CDK5R1 p35 (human)): 82.4%; residual activity (EGFR (human)): 98.3%; residual activity (MAP3K3 (human)): 99.2%; residual activity (ERBB4 (human)): 101%; residual activity (PAK6 (human)): 101%; residual activity (CHUK (human)): 93.3%; residual activity (CLK2 (human)): 102%; residual activity (CSNK1G1 (human)): 94.7%; residual activity (FGFR3 (human)): 98.2%; residual activity (PTK6 (human)): 80.8%; residual activity (FGFR2 (human)): 92.7%; residual activity (GSK3B (human)): 100%; residual activity (SRPK1 (human)): 99.9%; residual activity (PRKCD (human)): 91.3%
2 | O=S(=O)(NCCNC/C=C/c1ccc(Br)cc1)c1cccc2cnccc12 | 96.4% | 79.8% | 93.2% | 32.8% | 99.8% | 97.6% | 99.5% | 105% | 81.5% | 79.2% | 103% | 90.1% | 94.5% | 101% | 71.9% | 79.2% | 96.9% | 90.2% | 93.8% | 97.8% | residual activity (BRAF (human)): 99.8%; residual activity (MAP3K3 (human)): 85.4%; residual activity (ERBB4 (human)): 94.2%; residual activity (PAK6 (human)): 85.5%; residual activity (CHUK (human)): 104%; residual activity (CLK2 (human)): 106%; residual activity (CSNK1G1 (human)): 97.2%; residual activity (FGFR3 (human)): 91.3%; residual activity (PTK6 (human)): 94.2%; residual activity (FGFR2 (human)): 95.1%; residual activity (GSK3B (human)): 83.5%; residual activity (PRKCD (human)): 38.1%
